Data as given in patent US20120071496A1, “Aminopyrimidinamides As Pest Control Agents” (Bayer CropScience AG, priority 2009, published 2012).

Tests used:
[1] = test system: Spodoptera litura third instar larvae; assay: Test against tobacco cutworm (Spodoptera litura) larvae; assay type: in vivo; settings: active compound concentration 100 ppm; immersed sweet potato leaves; after 7 days
Protocol: Unless not mentioned otherwise, the test solutions were prepared as follows:
Containing as solvent: Dimethylformamide, 3 parts by weight; and as emulsifier: Polyoxyethylene alkyl phenyl ether, 1 part by weight
Test Against Tobacco Cutworm (Spodoptera litura) Larvae
Leaves of sweet potato were immersed in the test solution at the appropriate concentration, and the leaves were dried in air. The leaves were then placed in a petri dish having a diameter of 9 cm, and ten Spodoptera litura at third instar larvae were released therein. The petri dishes were placed in a temperature-controlled chamber at 25° C. After 2 days and 4 days more sweet potato leaves were added. After 7 days, the number of dead larvae was counted to calculate the insecticidal activity. An insecticidal activity of 100% means that all larvae were killed, whereas an insecticidal activity of 0% means that no larva was killed.

logP (HCOOH) = assay type: physicochemical; settings: for chromatographic logP: HCOOH (formic acid)
[2] = test system: mustard beetle larvae (Phaedon cochleariae); settings: application rate 500 g/ha; sprayed Chinese cabbage leaf-disks; after 7 days
Protocol: Phaedon Cochleariae —Test; (Spray Application)
Chinese cabbage (Brassica pekinesis) leaf-disks are sprayed with a preparation of the active ingredient of the desired concentration. Once dry, the leaf disks are infested with mustard beetle larvae (Phaedon cochleariae).
After 7 days mortality in % is determined.

[3] = test system: green peach aphid (Myzus persicae); assay: whole plant or invertebrate; settings: in Brassica rapa, 144 h, read-out: mortality in % (aphids killed)
Protocol: Myzus Persicae—Test; (Spray Application) 2
Solvent: 78.0 parts by weight acetone • 1.5 parts by weight dimethylformamide Emulsifier: 0.5 parts by weight alkylarylpolyglcolether
After 6 days mortality in % is determined.

SMILES	insecticidal activity [1] [%]	also measured
CCc1ncccc1C(=O)Nc1c(NC2CC2)ncnc1-c1ccc(Cn2nc(C(F)(F)F)nc2C(F)(F)F)cc1 [1-258]	100	logP (HCOOH) (logP (HCOOH); Table 2): 2.07
CCCc1ncccc1C(=O)Nc1c(NC2CC2)ncnc1-c1ccc(Cn2nc(C(F)(F)F)nc2C(F)(F)F)cc1 [1-264]	100	logP (HCOOH) (logP (HCOOH); Table 2): 1.9
O=C(Nc1c(NC2CC2)ncnc1-c1ccc(F)cc1F)c1cccnc1CC(F)(F)F [1-254]	100	logP (HCOOH) (logP (HCOOH); Table 2): 1.83
CCc1ncccc1C(=O)Nc1c(NC2CC2)nc(Cl)nc1-c1ccc(F)cc1 [1-326]	100	–
O=C(Nc1c(NC2CC2)ncnc1-c1ccc(F)cc1)c1cccnc1C1CC1 [1-235]	100	–
CCc1ncccc1C(=O)Nc1c(NC2CC2)ncnc1-c1ccc(Cc2nc(C(F)(F)C(F)(F)C(F)(F)F)n(C)n2)cc1 [1-318]	100	–
O=C(Nc1c(NC2CC2)ncnc1-c1ccc(OC(F)(F)F)cc1)c1cccnc1C1CC1 [1-243]	100	–
CCc1ccccc1C(=O)Nc1c(NC2CC2)ncnc1-c1ccc(Cn2cnc(C(F)(F)F)n2)cc1 [1-286]	100	–
CCc1ncccc1C(=O)Nc1c(NC2CC2)ncnc1-c1ccc(Cn2ccc(C(F)(F)C(F)(F)F)n2)cc1 [1-266]	100	–
CCCc1ncccc1C(=O)Nc1c(NC2CC2)ncnc1-c1ccc(C#N)cc1 [1-246]	100	–
CCc1ccccc1C(=O)Nc1c(NC2CC2)nc(C)nc1-c1ccccc1 [1-280]	–	mortality in % (beetle larvae killed) [2]: 1-280%
CCc1ncccc1C(=O)Nc1c(NC2CC2)ncnc1-c1ccc(Oc2nc(C(F)(F)F)cc(C(F)(F)C(F)(F)F)n2)cc1 [1-317]	100	–
O=C(Nc1c(NC2CC2)ncnc1-c1ccc(Cn2nc(C(F)(F)C(F)(F)F)cc2C(F)(F)F)cc1)c1cccnc1C1CC1 [1-253]	100	–
CCc1ncccc1C(=O)Nc1c(NC2CC2)nc(C(F)(F)F)nc1-c1ccc(F)cc1 [1-313]	100	–
CCc1ncccc1C(=O)Nc1c(NC2CC2)ncnc1-c1ccc(Cn2nc(C(F)(F)F)cc2C(F)(F)F)cc1 [1-268]	100	–
CCc1ncccc1C(=O)Nc1c(NC2CC2)ncnc1-c1ccc(Cl)cc1 [1-177, N-[4-(4-Chlorophenyl)-6-cyclopropylaminopyemidin-5-yl]-2-ethylnicotinamide]	100	chromatographic logP (logP (HCOOH); Table 2): 1.31

SMILES	insecticidal activity [1] [%]	also measured
CCCc1ncccc1C(=O)Nc1c(NC2CC2)ncnc1-c1ccc(F)cc1 [1-238]	100	–
CCc1ncccc1C(=O)Nc1c(Cl)ncnc1NC1CC1 [3-1, N-(4-Chloro-6-cyclopropylaminopyrimidin-5-yl)-2-ethylnicotinamide]	–	chromatographic logP (logP (HCOOH); Table 4): 0.79; mortality at 500 g/ha [3]: ≥ 80%
O=C(Nc1c(NC2CC2)ncnc1-c1ccc(Cn2nc(C(F)(F)F)nc2C(F)(F)F)cc1)c1cccnc1C1CC1 [1-259]	100	–
CCc1ncccc1C(=O)Nc1c(NC2CC2)ncnc1-c1ccc(Cn2nc(C(F)(F)C(F)(F)F)cc2C(F)(F)C(F)(F)F)cc1 [1-269]	100	–
O=C(Nc1c(NC2CC2)ncnc1-c1ccc(Cn2nc(C(F)(F)F)cc2C(F)(F)F)cc1)c1cccnc1C1CC1 [1-252]	100	–
O=C(Nc1c(NC2CC2)ncnc1-c1ccccc1)c1cccnc1C1CC1 [1-234]	100	–
CCc1ccccc1C(=O)Nc1c(NC2CC2)ncnc1-c1ccc(Cn2nc(C(F)(F)F)nc2C(F)(F)F)cc1 [1-265]	100	–
O=C(Nc1c(NC2CC2)ncnc1-c1ccc(F)cc1F)c1cccnc1C1CC1 [1-240]	100	–
CCc1ncccc1C(=O)Nc1c(NC2CC2)ncnc1-c1ccc(Cn2ccc(C(F)(F)C(F)(F)C(F)(F)F)n2)cc1 [1-267]	100	–
O=C(Nc1c(NC2CC2)ncnc1-c1ccc(Cl)cc1)c1cccnc1C(F)(F)C(F)(F)F [1-241]	100	–
CCc1ncccc1C(=O)Nc1c(Cl)ncnc1Nc1ccc(F)cc1 [5-2]	100	–
O=C(Nc1c(NC2CC2)nc(Cl)nc1-c1ccc(F)cc1)c1cccnc1CC(F)(F)F [1-325]	100	–
CCc1ncccc1C(=O)Nc1c(NC2CC2)ncnc1-c1ccc(Oc2ncc(C(F)(F)F)cc2Cl)cc1 [1-310]	100	logP (HCOOH) (logP (HCOOH); Table 2): 1.84
CCc1ncccc1C(=O)Nc1c(NC2CC2)ncnc1-c1ccc(Cc2n[nH]c(C(F)(F)C(F)(F)C(F)(F)F)n2)cc1 [1-319]	100	–
CCc1ncccc1C(=O)Nc1c(NC2CC2)ncnc1-c1ccc(Oc2ncccc2C(F)(F)F)cc1 [1-311]	100	–
